Measured values as given in patent US10730863B2, “Bridged bicyclic compounds as farnesoid X receptor modulators” (BRISTOL-MYERS SQUIBB COMPANY, priority 2017, dated 2020).

Biological target: FXR (Homo sapiens (Human), UniProt Q96RI1)
Assay: FXR EC50 (FXR agonist activity reported with each example)
Assay type: cell-based

Chain of FXR (Q96RI1 262-486): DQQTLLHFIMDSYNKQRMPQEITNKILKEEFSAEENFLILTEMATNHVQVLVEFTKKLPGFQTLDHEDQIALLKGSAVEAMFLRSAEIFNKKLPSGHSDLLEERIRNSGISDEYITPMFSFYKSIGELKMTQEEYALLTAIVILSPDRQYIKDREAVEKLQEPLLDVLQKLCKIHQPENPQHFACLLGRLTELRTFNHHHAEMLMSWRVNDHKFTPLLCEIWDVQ

Row | Structure (SMILES) | EC50 [nM]
1 | O=C(O)c1ccc(-c2noc(C34CCC(OCc5c(-c6ccccc6C(F)(F)F)noc5C5CC5)(CC3)CC4)n2)cn1 [Example 46] | 2700
2 | O=C(O)c1cccc(-c2noc(C34CCC(OCc5c(-c6ccccc6OC(F)(F)F)noc5C5CC5)(CC3)CC4)n2)n1 [Example 47] | 550
3 | O=C(O)c1cccc(-c2noc(C34CCC(OCc5c(-c6ccccc6C(F)(F)F)noc5C5CC5)(CC3)CC4)n2)n1 [Example 48] | 2100
4 | O=C(O)c1cc(-c2noc(C34CCC(OCc5c(-c6ccccc6OC(F)(F)F)noc5C5CC5)(CC3)CC4)n2)ccn1 [Example 49] | 1200
5 | O=C(O)c1cc(-c2noc(C34CCC(OCc5c(-c6ccccc6C(F)(F)F)noc5C5CC5)(CC3)CC4)n2)ccn1 [Example 50] | 2100
6 | O=C(O)c1cc(F)c2nc(C34CCC(OCc5c(-c6ccccc6C(F)(F)F)noc5C5CC5)(CC3)CC4)sc2c1 [Example 51] | 500
7 | O=C(O)c1cccc(-c2nc(C34CCC(OCc5c(-c6ccccc6OC(F)(F)F)noc5C5CC5)(CC3)CC4)no2)c1 [Example 55] | 250
8 | O=C(O)c1ccc(-c2nc(C34CCC(OCc5c(-c6ccccc6OC(F)(F)F)noc5C5CC5)(CC3)CC4)no2)cc1 [Example 57] | 650
9 | O=C(O)c1cc(-c2nc(C34CCC(OCc5c(-c6ccccc6OC(F)(F)F)noc5C5CC5)(CC3)CC4)no2)ccn1 [Example 58] | 4000
10 | O=C(O)c1cc(-c2nc(C34CCC(OCc5c(-c6ccccc6C(F)(F)F)noc5C5CC5)(CC3)CC4)no2)ccn1 [Example 59] | 3800
11 | O=C(O)c1cccc(-c2nc(C34CCC(OCc5c(-c6ccccc6OC(F)(F)F)noc5C5CC5)(CC3)CC4)no2)n1 [Example 61] | 840
12 | O=C(O)c1ccc2nc(C34CCC(OCc5c(-c6ccccc6OC(F)(F)F)noc5C5CC5)(CC3)CC4)ncc2c1 [Example 62] | 1300
13 | O=C(O)c1cc(-c2noc(C34CCC(OCc5c(-c6c(Cl)cccc6Cl)noc5C5CC5)(CC3)CC4)n2)ccc1F [Example 64, 5-(5-(4-((5-Cyclopropyl-3-(2,6-dichlorophenyl)isoxazol-4-yl)methoxy)bicyclo[2.2.2]octan-1-yl)-1,2,4-oxadiazol-3-yl)-2-fluorobenzoic acid] | 140
14 | Clc1cccc(Cl)c1-c1noc(C2CC2)c1COC12CCC(c3nc4ccc(-c5nnn[nH]5)cc4s3)(CC1)CC2 [Example 66, 4-(((4-(6-(1H-tetrazol-5-yl)benzo[d]thiazol-2-yl)bicyclo[2.2.2]octan-1-yl)oxy)methyl)-5-cyclopropyl-3-(2,6-dichlorophenyl)isoxazole] | 390
15 | O=C(O)c1c(F)ccc(-c2noc(C34CCC(OCc5c(-c6c(Cl)cccc6Cl)noc5C5CC5)(CC3)CC4)n2)c1F [Example 68, 3-(5-(4-((5-Cyclopropyl-3-(2,6-dichlorophenyl)isoxazol-4-yl)methoxy)bicyclo[2.2.2]octan-1-yl)-1,2,4-oxadiazol-3-yl)-2,6-difluorobenzoic acid] | 250
16 | COc1ccc(-c2noc(C34CCC(OCc5c(-c6c(Cl)cncc6Cl)noc5C5CC5)(CC3)CC4)n2)cc1C(=O)O [Example 69, 5-(5-(4-((5-Cyclopropyl-3-(3,5-dichloropyridin-4-yl)isoxazol-4-yl)methoxy)bicyclo[2.2.2]octan-1-yl)-1,2,4-oxadiazol-3-yl)-2-methoxybenzoic acid] | 56
17 | Cn1nc(-c2nc(C34CCC(OCc5c(-c6c(Cl)cccc6Cl)noc5C5CC5)(CC3)CC4)no2)cc1C(=O)O [Example 70, 3-(3-(4-((5-Cyclopropyl-3-(2,6-dichlorophenyl)isoxazol-4-yl)methoxy)bicyclo[2.2.2]octan-1-yl)-1,2,4-oxadiazol-5-yl)-1-methyl-1H-pyrazole-5-carboxylic acid] | 430
18 | O=C(O)c1cccc(-c2noc(C34CCC(OCc5c(-c6c(Cl)cncc6Cl)noc5C5CC5)(CC3)CC4)n2)c1F [Example 71, 3-(5-(4-((5-Cyclopropyl-3-(3,5-dichloropyridin-4-yl)isoxazol-4-yl)methoxy)bicyclo[2.2.2]octan-1-yl)-1,2,4-oxadiazol-3-yl)-2-fluorobenzoic acid] | 69
